Laboratory results published in paper PMC10674476, “Development of a Novel In Vitro Model to Study Lymphatic Uptake of Drugs via Artificial Chylomicrons” (Pharmaceutics, 2023).
Read-outs that look alike come from different tables or passages of the source. Marks after values point to notes of the source that are not given here.

Key:
[1] = In vitro lymphatic uptake model (Franz cell, Intralipid receiver, octanol-impregnated PVDF membrane); settings: 37 °C, 0–4 h, rank among the four tested drugs
Experimental: The Franz Cell receiver compartment was filled with 12 mL of either Intralipid® or Intralipid® mixed with a potential inhibitor or enhancer and maintained at 37.0 ± 0.5 °C with magnetic stirring at 600 rpm, as shown in Figure 2. A synthetic 0.22 µm Polyvinylidene Fluoride (PVDF) membrane impregnated with octanol was placed between compartments. […] Two mL solutions of the model drugs were added to the donor compartment with the receiver compartment containing either Intralipid® or Intralipid® mixed with an enhancer or an inhibitor. At different time intervals (0–4 h), 0.2 mL samples were withdrawn, extracted, and analyzed for drug content using HPLC with a C18 column (150 mm × 4.6 mm i.d., 5 µm).
Therefore, this in vitro model was developed to replicate this in vivo process. Since certain lipophilic drugs are taken up from the intestinal lumen into enterocytes and subsequently enclosed within chylomicrons, the developed model was designed to include a donor compartment, resembling the intestinal lumen, where the drug solution is placed. Additionally, there was a receiver compartment that contains an artificial chylomicron medium, simulating the environment within enterocytes. These two compartments were separated by an octanol-immersed membrane, which served as a representation of the lipophilic cell membrane found in enterocytes (Figure 2).

[2] = cited from earlier work; for Density: ref ChemBK **, ChemSpider ***, # drugfuture.com, ## chemsrc.com; for PSA (polar surface area): ref DrugBank, in Å2 (unit assumed)
[3] = parameters: method as in PMID 32785853; settings: Sprague-Dawley rats, cited from earlier work
[4] = parameters: method as in PMID 32785853, PMID 29109461; settings: cited from earlier work
[5] = lipidic vehicles, lymph-cannulated rats; cited from earlier work
[6] = long-chain triglyceride formulation; cited from earlier work
[7] = parameters: method as in PMID 23200408; settings: intraduodenal, thoracic duct-cannulated rats; cited from earlier work
[8] = parameters: method as in PMID 19916501; settings: 30 mg/kg intraduodenal, mesenteric-cannulated rat; cited from earlier work
[9] = oral; cited from earlier work

Structure (SMILES)	lymphatic uptake (release into the receiver compartment) [1]	Density [2]	PSA (polar surface area) [2]	HBA (hydrogen-binding acceptors) ([2]; ref PubChem (* DrugBank))	HBD (hydrogen binding donors) ([2]; ref PubChem (* DrugBank))	LogP ([2]; ref PubChem (* DrugBank))	increase in systemic exposure with lipids versus lipid-free formulations [3]	increase in systemic exposure with lipids versus lipid-free formulations ([3]; listed as CBD)	increase in plasma concentration with sesame oil [4] [fold]	increase in systemic exposure with sesame oil [4] [fold]	pKa ([2]; ref PubChem (* DrugBank))	total systemic exposure [5]	total bioavailability [6] [%]	transport through the lymphatic system with soybean oil [7]	Cmax in the lymph relative to plasma [8]	systemic exposure compared to testosterone administration [9]
C=C(C)[C@@H]1CCC(C)=C[C@H]1c1c(O)cc(CCCCC)cc1O [Cannabidiol, cannabidiol]	moderate efficiency	1.04 ^# g/cm^3	40.46 *	2 *	2 *	6.3 *	factor of three	three-fold increase	250	2.8						
CCCCN(CCCC)CCC(O)c1cc2c(Cl)cc(Cl)cc2c2cc(C(F)(F)F)ccc12 (stereo not drawn) [Halofantrine]		1.2 *** g/cm^3	23.5 *	5	1	8.9					14.47	22.7 % of the administered dose	19.1			
O=c1c(O)c(-c2ccc(O)c(O)c2)oc2cc(O)cc(O)c12 [Quercetin, quercetin]	moderate efficiency	1.8 ^## g/cm^3	127.45 *	7	5	1.48								notably improved	approximately five times higher	
CO[C@H]1/C=C/O[C@@]2(C)Oc3c(C)c(O)c4c(O)c(c(/C=N/N5CCN(C)CC5)c(O)c4c3C2=O)NC(=O)/C(C)=C\C=C\[C@H](C)[C@H](O)[C@@H](C)[C@@H](O)[C@@H](C)[C@H](OC(C)=O)[C@@H]1C [Rifampicin, rifampicin]	least available	1.178 ** g/cm^3	220.15 *	15	6	4.9										
CCCCCCCCCCC(=O)O[C@H]1CC[C@H]2[C@@H]3CCC4=CC(=O)CC[C@]4(C)[C@H]3CC[C@]12C [testosterone undecanoate]																higher systemic exposure
